Results published in US6297043A, “Mumbaistatin, a process for it's production and its use as a pharmaceutical” (Aventis Pharma Deutschland GmbH, priority 1998, dated 2001).

Legend:
[1] = tested on: rat liver microsomal glucose-6-phosphate translocase; test: inhibition of rat liver microsomal glucose-6-phosphate translocase activity; type: biochemical; details: translocase versus phosphatase activity
Excerpt: (§1) If desired, DESMOPHEN® (polypropylene oxide) may be used as an antifoam agent in the fermenters. […] In the resulting culture broth, Mumbaistatin is present primarily in the culture filtrate and can thus be recovered by extraction of the culture filtrate with a water immiscible solvent such as, for example, ethyl acetate, dichloromethane, chloroform or butanol at pH 5-8, or by hydrophobic interaction chromatography using polymeric resins such as DIAION® HP-20 (Mitsubishi Chemical Industries Limited, Japan), AMBERLITE® XAD (Rohm and Haas Industries, U.S.A.), or activated charcoal, or by ion exchange chromatography at pH 5-8.
(§2) The production of Mumbaistatin was monitored by measuring the inhibition of glucose-6-phosphate translocase.
(§3) The production of the compound was monitored by measuring the inhibition of glucose-6-phosphate translocase.

[2] = biological target: T1, rat liver microsomal glucose-6-phosphate translocase (Rattus norvegicus, UniProt F7EWB7); test: as above; type: biochemical
T1 construct: rat liver microsomal glucose-6-phosphate translocase; from tissue; host or cells: rat liver microsomes
T1 sequence (F7EWB7 1-429): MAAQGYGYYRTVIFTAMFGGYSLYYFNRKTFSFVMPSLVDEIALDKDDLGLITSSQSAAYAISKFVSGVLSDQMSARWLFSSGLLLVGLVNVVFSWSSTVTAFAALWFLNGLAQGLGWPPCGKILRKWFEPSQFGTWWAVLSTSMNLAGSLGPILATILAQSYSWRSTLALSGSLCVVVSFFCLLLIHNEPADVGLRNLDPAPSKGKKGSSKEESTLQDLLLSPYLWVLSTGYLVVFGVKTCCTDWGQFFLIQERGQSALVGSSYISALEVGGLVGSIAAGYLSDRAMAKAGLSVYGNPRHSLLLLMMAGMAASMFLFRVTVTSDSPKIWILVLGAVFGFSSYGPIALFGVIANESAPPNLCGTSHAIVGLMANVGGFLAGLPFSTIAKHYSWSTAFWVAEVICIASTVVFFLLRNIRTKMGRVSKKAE
Excerpt: as §1, §2, §3

[3] = tested on: fructose-induced gluconeogenesis; test: glucose output of isolated rat hepatocytes: fructose-induced gluconeogenesis; type: cell-based
Description: (§4) Mumbaistatin was further evaluated in isolated rat hepatocytes for its effect on glucose output. It inhibits both fructose-induced gluconeogenesis and glucagon-induced glycogenolysis with IC50 values of about 0.3 μM and 0.6 μM, respectively.

[4] = tested on: phosphate/pyrophosphate translocase; test: effect on activity of phosphate/pyrophosphate translocase; type: biochemical
[5] = tested on: glucagon-induced glycogenolysis; test: glucose output of isolated rat hepatocytes: glucagon-induced glycogenolysis; type: cell-based
Description: as §4

## Mumbaistatin
[1]
  specificity for translocase over phosphatase: high degree of specificity for translocase
[2]
  mode of inhibition of glucose-6-phosphate translocase: reversible and competitive inhibitor
[2]; rat liver microsomal
  IC50: ~25 nM
  inhibition of glucose-6-phosphate translocase: potently inhibits
[3]
  IC50: ~300 nM
[4]
  effect on activity of phosphate/pyrophosphate translocase: did not affect
[5]
  IC50: ~600 nM
